≈ marks a conversion by molar mass, not a printed value.
How the values were obtained:
[1] = molecular target: T1, MexAB-OprM efflux transporter (Pseudomonas aeruginosa, UniProt P52002); conditions: wild-type P. aeruginosa, background statement; cited from earlier work
T1 construct: MexAB-OprM efflux transporter present in wild-type P. aeruginosa; endogenous in cells; host or cells: wild-type P. aeruginosa

MreB = conditions: P. aeruginosa; background statement; cited from earlier work
P. Aeruginosa PAO1 [2] = assay: MIC assay in the presence of a bacterial efflux pump inhibitor (EPI), P. aeruginosa PAO1; assay type: cell-based, Pseudomonas aeruginosa; conditions: in the presence of 12.5 μg/ml of N-(((2S,4R)-4-(aminomethyl)pyrrolidin-2-yl)methyl)-6-(4-fluorophenyl)-1H-indole-2-carboxamide
Description: The ability of a compound to produce an antibiotic effect can be determined using a method as described in Example 11. Data for representative compounds used in combination with the bacterial efflux pump inhibitor (EPI) N-(((2S,4R)-4-(aminomethyl)pyrrolidin-2-yl)methyl)-6-(4-fluorophenyl)-1H-indole-2-carboxamide is shown in Table 1.
(§1) MIC assays were conducted in accordance with Clinical and Laboratory Standards Institute (CLSI) guidelines for broth microdilution.
The EPI assay for the purposes of these studies represents a MIC assay in which the MIC of the antibiotic against the bacteria is tested in the presence of an experimental efflux pump inhibitor (EPI). The highest concentration of the EPI present in the assay typically is ½ of the intrinsic MIC of the compound. […] Using serial dilutions of the EPI, its enhancement of antibiotic activity was then evaluated. The relative EPI activity was decided by comparing the MIC of the antibiotic in the presence of the EPI compound with the intrinsic MIC of the antibiotic alone. For comparative purposes, we generally used EPIs at concentration of 12.5 and 6.25 μg/ml against varying concentration of our test antibiotic.

P. Aeruginosa PAO1 [3] = assay: Intrinsic MIC assay (broth microdilution), P. aeruginosa PAO1; assay type: cell-based, Pseudomonas aeruginosa; conditions: Pseudomonas aeruginosa, 18 h; P. Aeruginosa PAO1, without EPI; read-out: Intrinsic MIC
Description: as §1
(§2) The intrinsic MIC of the experimental EPIs was tested with the method described. The 2-fold serial dilution begins with 100 μg/mL of tested compound in the first column of the 96-well plates. The following Gram-negative bacterial strains were included in these assays: • Escherichia coli ATCC 25922 • Klebsiella pneumoniae ATCC 13883 and ATCC 10031 • Pseudomonas aeruginosa ATCC 27853. • Pseudomonas aeruginosa PAO1 • Acinetobacter baumannii ATCC 19606

K. pneumoniae ATCC 10031 = assay: Intrinsic MIC assay (broth microdilution), K. pneumoniae; assay type: cell-based, Klebsiella pneumoniae; conditions: Klebsiella pneumoniae, ATCC10031; K. pneumoniae ATCC 10031; read-out: Intrinsic MIC
Description: as §1, §2

A. baumannii ATCC 19606 = assay: Intrinsic MIC assay (broth microdilution), A. baumannii; assay type: cell-based, Acinetobacter baumannii; conditions: Acinetobacter baumannii, ATCC19606; A. baumannii ATCC 19606; read-out: Intrinsic MIC
Description: as §1, §2

E. coli ATCC 25922 = assay: Intrinsic MIC assay (broth microdilution), E. coli; assay type: cell-based, Escherichia coli; conditions: Escherichia coli, ATCC25922; E. coli ATCC 25922; read-out: Intrinsic MIC
Description: as §1, §2

T1 sequence (P52477 24-383): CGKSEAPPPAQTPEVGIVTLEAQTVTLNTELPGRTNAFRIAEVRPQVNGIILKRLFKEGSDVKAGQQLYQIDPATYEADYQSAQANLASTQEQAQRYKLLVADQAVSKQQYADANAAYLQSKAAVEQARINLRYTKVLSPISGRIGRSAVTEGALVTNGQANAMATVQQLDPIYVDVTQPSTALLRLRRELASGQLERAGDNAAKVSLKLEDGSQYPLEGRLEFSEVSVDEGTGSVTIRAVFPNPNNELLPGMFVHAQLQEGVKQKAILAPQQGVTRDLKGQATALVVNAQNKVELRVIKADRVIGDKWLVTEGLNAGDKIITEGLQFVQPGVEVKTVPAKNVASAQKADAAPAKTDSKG
T1 sequence (P52002 whole entry): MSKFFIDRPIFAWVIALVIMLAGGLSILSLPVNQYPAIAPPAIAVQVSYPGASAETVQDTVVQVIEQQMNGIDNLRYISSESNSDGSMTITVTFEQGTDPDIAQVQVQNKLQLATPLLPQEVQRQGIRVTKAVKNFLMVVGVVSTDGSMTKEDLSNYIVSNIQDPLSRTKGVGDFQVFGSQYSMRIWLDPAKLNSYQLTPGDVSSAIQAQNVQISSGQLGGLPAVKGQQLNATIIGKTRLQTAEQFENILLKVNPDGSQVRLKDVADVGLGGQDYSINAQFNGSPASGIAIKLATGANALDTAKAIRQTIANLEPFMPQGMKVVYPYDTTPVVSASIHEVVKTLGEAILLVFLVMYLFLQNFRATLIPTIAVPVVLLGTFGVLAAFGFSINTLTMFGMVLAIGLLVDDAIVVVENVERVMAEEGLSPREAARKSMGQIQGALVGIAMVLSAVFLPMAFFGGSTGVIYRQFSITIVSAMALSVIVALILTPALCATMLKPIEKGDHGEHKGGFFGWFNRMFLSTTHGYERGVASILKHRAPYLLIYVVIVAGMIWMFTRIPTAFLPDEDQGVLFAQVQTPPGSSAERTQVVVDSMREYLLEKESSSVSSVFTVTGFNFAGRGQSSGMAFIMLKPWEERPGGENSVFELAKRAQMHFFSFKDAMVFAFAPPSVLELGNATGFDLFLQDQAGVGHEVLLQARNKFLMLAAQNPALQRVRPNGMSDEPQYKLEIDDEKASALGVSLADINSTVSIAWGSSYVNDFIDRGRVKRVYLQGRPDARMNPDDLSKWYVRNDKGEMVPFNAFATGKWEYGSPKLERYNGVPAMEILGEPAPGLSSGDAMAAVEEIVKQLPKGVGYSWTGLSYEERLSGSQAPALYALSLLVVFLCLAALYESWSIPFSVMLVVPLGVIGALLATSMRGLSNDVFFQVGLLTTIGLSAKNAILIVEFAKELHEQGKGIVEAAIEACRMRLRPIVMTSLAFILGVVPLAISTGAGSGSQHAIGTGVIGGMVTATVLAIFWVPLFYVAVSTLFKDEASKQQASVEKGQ
T1 sequence (Q51487 18-485, further chain): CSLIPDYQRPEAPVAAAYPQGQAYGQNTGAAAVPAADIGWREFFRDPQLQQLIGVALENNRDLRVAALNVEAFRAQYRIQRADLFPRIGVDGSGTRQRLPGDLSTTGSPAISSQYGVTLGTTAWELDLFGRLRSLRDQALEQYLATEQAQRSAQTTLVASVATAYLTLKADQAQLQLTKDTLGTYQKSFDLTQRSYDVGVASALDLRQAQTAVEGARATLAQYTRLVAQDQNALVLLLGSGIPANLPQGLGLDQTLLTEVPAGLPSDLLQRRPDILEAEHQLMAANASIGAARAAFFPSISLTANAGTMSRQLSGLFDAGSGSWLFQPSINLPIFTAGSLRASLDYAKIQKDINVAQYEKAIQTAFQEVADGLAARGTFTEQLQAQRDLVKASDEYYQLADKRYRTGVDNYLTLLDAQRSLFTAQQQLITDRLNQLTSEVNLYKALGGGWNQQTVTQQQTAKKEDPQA

Row | Compound | MIC in the Presence of EPI* (P. Aeruginosa PAO1 [2]) | MIC (P. Aeruginosa PAO1 [3]) | MIC (K. pneumoniae ATCC 10031) | MIC (A. baumannii ATCC 19606) | MIC (E. coli ATCC 25922) | Efflux transporter substrate [1] | MreB inhibition (MreB)
1 | NC1CCCc2c1[nH]c1ccc(Br)cc21 (stereo not shown) [CBR-4830] | – | – | – | – | – | substrate for the MexAB-OprM efflux transporter | effective MreB inhibitor
2 | CC(NCCCNC(=O)c1ccc(Cl)c(Cl)c1)c1cc2cc(Br)ccc2[nH]1 (stereo not shown) [Example 30, N-(3-((1-(5-Bromo-1H-indol-2-yl)ethyl)amino)propyl)-3,4-dichlorobenzamide] | 32 µg/mL | > 256 µg/mL | 4 µg/mL (≈ 8.52 µM) | 64 µg/mL (≈ 136 µM) | 32 µg/mL (≈ 68.2 µM) | – | –
3 | CC(NCCCNC(=O)C1CCCCC1)c1cc2cc(Br)ccc2[nH]1 (stereo not shown) [Example 31, N-(3-((1-(5-Bromo-1H-indol-2-yl)ethyl)amino)propyl)cyclohexanecarboxamide] | 128 µg/mL | > 256 µg/mL | 16 µg/mL (≈ 39.4 µM) | 64 µg/mL (≈ 157 µM) | 64 µg/mL (≈ 157 µM) | – | –
4 | CC(NCCc1ccccc1)c1cc2cc(Br)ccc2[nH]1 (stereo not shown) [Example 33, 1-(5-Bromo-1H-indol-2-yl)-N-phenethylethan-1-amine] | 32 µg/mL | > 256 µg/mL | 4 µg/mL (≈ 11.7 µM) | 32 µg/mL (≈ 93.2 µM) | 16 µg/mL (≈ 46.6 µM) | – | –
5 | CC(NCCNC(=O)c1ccc(Cl)c(Cl)c1)c1cc2cc(Br)ccc2[nH]1 (stereo not shown) [Example 34, N-(2-((1-(5-Bromo-1H-indol-2-yl)ethyl)amino)ethyl)-3,4-dichlorobenzamide] | 32 µg/mL | > 256 µg/mL | 4 µg/mL (≈ 8.79 µM) | 64 µg/mL (≈ 141 µM) | 32 µg/mL (≈ 70.3 µM) | – | –
6 | NC(CCc1ccccc1)c1cc2cc(Br)ccc2[nH]1 (stereo not shown) [Example 36, 1-(5-Bromo-1H-indol-2-yl)-3-phenylpropan-1-amine] | 32 µg/mL | > 256 µg/mL | 8 µg/mL (≈ 24.3 µM) | 32 µg/mL (≈ 97.2 µM) | 16 µg/mL (≈ 48.6 µM) | – | –
7 | CC(NCCCC(=O)Nc1ccc(Cl)c(Cl)c1)c1cc2cc(Br)ccc2[nH]1 (stereo not shown) [Example 37, 4-((1-(5-Bromo-1H-indol-2-yl)ethyl)amino)-N-(3,4-dichlorophenyl)butanamide] | 16 µg/mL | > 256 µg/mL | 4 µg/mL (≈ 8.52 µM) | 32 µg/mL (≈ 68.2 µM) | 16 µg/mL (≈ 34.1 µM) | – | –
8 | CC(NCCCCOc1ccc(Cl)c(Cl)c1)c1cc2cc(Br)ccc2[nH]1 (stereo not shown) [Example 38, N-(1-(5-Bromo-1H-indol-2-yl)ethyl)-4-(3,4-dichlorophenoxy)butan-1-amine] | 16 µg/mL | > 256 µg/mL | 4 µg/mL (≈ 8.77 µM) | 64 µg/mL (≈ 140 µM) | 16 µg/mL (≈ 35.1 µM) | – | –

More lines, main results first:

Row | MIC in the Presence of EPI* (P. Aeruginosa PAO1 [2]) | MIC (P. Aeruginosa PAO1 [3]) | MIC (K. pneumoniae ATCC 10031) | MIC (A. baumannii ATCC 19606) | MIC (E. coli ATCC 25922) | Compound | Efflux transporter substrate [1] | MreB inhibition (MreB)
9 | 64 µg/mL | > 256 µg/mL | 16 µg/mL (≈ 54.2 µM) | 64 µg/mL (≈ 217 µM) | 32 µg/mL (≈ 108 µM) | CCCCNC(C)c1cc2cc(Br)ccc2[nH]1 (stereo not shown) [Example 32, N-(1-(5-Bromo-1H-indol-2-yl)ethyl)butan-1-amine] | – | –
10 | 256 µg/mL | > 256 µg/mL | 64 µg/mL (≈ 218 µM) | 128 µg/mL (≈ 437 µM) | 128 µg/mL (≈ 437 µM) | CC(NCC1CC1)c1cc2cc(Br)ccc2[nH]1 (stereo not shown) [Example 35, 1-(5-Bromo-1H-indol-2-yl)-N-(cyclopropylmethyl)ethan-1-amine] | – | –
11 | > 256 µg/mL | > 256 µg/mL | 128 µg/mL (≈ 413 µM) | 256 µg/mL (≈ 825 µM) | 256 µg/mL (≈ 825 µM) | CCNCCNC(C)c1cc2cc(Br)ccc2[nH]1 (stereo not shown) [Example 39, N^1-(1-(5-Bromo-1H-indol-2-yl)ethyl)-N^2-ethylethane-1,2-diaminehydrochloricacid] | – | –

Reference: US11845742B2, “Therapeutic compounds and methods to treat infection” (priority 2017, dated 2023)
